Measured values as given in PMC10299128, “The Parallel Structure–Activity Relationship Screening of Three Compounds Identifies the Common Agonist Pharmacophore of Pyrrolidine Bis-Cyclic Guanidine Melanocortin-3 Receptor (MC3R) Small-Molecule Ligands” (International Journal of Molecular Sciences, 2023).
Where “and” joins values, the source holds several entries; their conditions need not be identical. Equal entries are not always repeated. Where two headings read alike, the source gives them in different places.

Columns and labels:
[1] = molecular target: T1, mMC4R (Mus musculus, UniProt P56450); settings: antagonist, Schild analysis with agonist NDP-MSH; mean ± SEM
T1 sequence (P56450 whole entry): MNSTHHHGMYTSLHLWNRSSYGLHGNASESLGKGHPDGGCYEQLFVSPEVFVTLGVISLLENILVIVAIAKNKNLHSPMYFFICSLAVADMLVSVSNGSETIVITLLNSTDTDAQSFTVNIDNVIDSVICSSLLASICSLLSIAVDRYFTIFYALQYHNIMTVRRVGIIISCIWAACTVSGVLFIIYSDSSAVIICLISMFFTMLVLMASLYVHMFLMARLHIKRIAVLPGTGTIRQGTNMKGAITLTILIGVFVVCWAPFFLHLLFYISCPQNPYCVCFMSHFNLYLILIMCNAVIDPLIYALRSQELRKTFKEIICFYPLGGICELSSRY

[2] = molecular target: T2, mMC1R (Mus musculus, UniProt Q01727); test: AlphaScreen cAMP agonist assay, HEK293 cells stably expressing mMC1R; settings: for mMC1R partial agonist efficacy bin: sigmoidal curve, efficacy <90% of NDP-MSH
T2 sequence (Q01727 whole entry): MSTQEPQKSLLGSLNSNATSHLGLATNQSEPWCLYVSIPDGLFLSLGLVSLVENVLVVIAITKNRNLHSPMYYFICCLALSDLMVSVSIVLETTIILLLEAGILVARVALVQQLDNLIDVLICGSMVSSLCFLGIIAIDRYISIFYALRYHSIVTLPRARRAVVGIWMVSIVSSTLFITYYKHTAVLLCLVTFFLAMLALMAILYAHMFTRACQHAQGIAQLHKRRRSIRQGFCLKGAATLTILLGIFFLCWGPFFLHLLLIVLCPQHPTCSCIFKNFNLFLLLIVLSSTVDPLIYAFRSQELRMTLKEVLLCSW

[3] = molecular target: T3, mMC3R (Mus musculus, UniProt P33033); test: AlphaScreen cAMP agonist assay, HEK293 cells stably expressing mMC3R; settings: for mMC3R agonist efficacy (in words): relative to NDP-MSH, full = >90% receptor activation; for mMC3R partial agonist efficacy bin: sigmoidal curve, efficacy <90% of NDP-MSH
T3 sequence (P33033 whole entry): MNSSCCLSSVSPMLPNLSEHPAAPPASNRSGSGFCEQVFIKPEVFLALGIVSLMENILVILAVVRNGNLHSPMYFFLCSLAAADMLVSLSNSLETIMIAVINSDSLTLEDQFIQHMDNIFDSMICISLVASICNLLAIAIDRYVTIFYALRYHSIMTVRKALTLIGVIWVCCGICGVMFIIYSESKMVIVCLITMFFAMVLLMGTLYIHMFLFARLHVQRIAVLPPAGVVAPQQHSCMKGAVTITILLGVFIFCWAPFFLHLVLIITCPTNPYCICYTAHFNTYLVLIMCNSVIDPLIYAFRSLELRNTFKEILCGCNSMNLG

[4] = molecular target: T4, mMC5R (Mus musculus, UniProt P41149); test: AlphaScreen cAMP agonist assay, HEK293 cells stably expressing mMC5R; settings: for mMC5R partial agonist efficacy bin: sigmoidal curve, efficacy <90% of NDP-MSH; for mMC5R percent maximal stimulatory response (compared to NDP-MSH): at 1 mM, not enough stimulation to determine EC50; for fold decreased mMC5R agonist potency: relative to 2718.003; for mMC5R agonist efficacy (in words): relative to NDP-MSH, full = >90% receptor activation
T4 sequence (P41149 whole entry): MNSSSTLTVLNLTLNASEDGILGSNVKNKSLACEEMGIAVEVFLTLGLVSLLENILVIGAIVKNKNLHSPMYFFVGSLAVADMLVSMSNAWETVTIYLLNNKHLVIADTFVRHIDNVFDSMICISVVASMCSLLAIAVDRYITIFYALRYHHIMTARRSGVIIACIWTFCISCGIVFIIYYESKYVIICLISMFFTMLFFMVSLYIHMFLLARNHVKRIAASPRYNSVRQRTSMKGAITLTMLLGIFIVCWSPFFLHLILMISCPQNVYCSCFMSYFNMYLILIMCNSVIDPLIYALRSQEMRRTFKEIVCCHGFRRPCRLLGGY

[5] = molecular target: T1, mMC4R; test: cell-based
[6] = molecular target: T1, mMC4R; test: AlphaScreen cAMP agonist assay, HEK293 cells stably expressing mMC4R; settings: for mMC4R partial agonist efficacy bin: sigmoidal curve, efficacy <90% of NDP-MSH
[7] = molecular target: T3, mMC3R; set-up: expressed in transfected cells; method as in PMID 33886285; settings: β-galactosidase reporter gene assay; read-out: mMC3R agonist EC50 (previously reported); cited from earlier work
[8] = molecular target: T2, mMC1R; set-up: expressed in transfected cells; method as in PMID 33886285; settings: at 10 µM; cited from earlier work
[9] = molecular target: T4, mMC5R; set-up: expressed in transfected cells; method as in PMID 33886285; settings: β-galactosidase reporter gene assay; read-out: mMC5R agonist EC50 (previously reported); cited from earlier work
[10] = molecular target: T1, mMC4R; set-up: expressed in transfected cells; method as in PMID 33886285; settings: with agonist MTII; cited from earlier work
[11] = molecular target: T1, mMC4R; set-up: expressed in transfected cells; method as in PMID 33886285; settings: at 10 µM; cited from earlier work
[12] = at 1 mM, not enough stimulation to determine EC50

mMC4R pA2 [1]	EC50 [2] [µM]	EC50 [3] [µM]	mMC3R agonist efficacy (in words) [3]	EC50 [4] [µM]	Kb [5] [µM]	EC50 [6] [µM]	mMC4R percent maximal stimulatory response (compared to NDP-MSH) [6, 12] [% @ 1 mM]	mMC3R percent maximal stimulatory response (compared to NDP-MSH) [3, 12] [% @ 1 mM]	Structure (SMILES)	also measured
5.8	1.1 ± 0.3	3.3 ± 0.1	full agonist efficacy	1.3 ± 0.1	1.58	2.9 ± 0.4			CCC[C@@H]1CN([C@H](CC2CCCCC2)CN2CCC[C@H]2CN2CCNC2=N)C(=N)N1CC1CCC(C(C)(C)C)CC1 (some centres unmarked) [Compound 2718.029]	mMC4R partial agonist efficacy bin [6]: B (B (51–90% receptor activation))
6.2	0.46 ± 0.03	2.6 ± 0.2	full agonist efficacy	0.3 ± 0.01	0.631	1.8 ± 0.5			C[C@H](O)[C@@H]1CN([C@H](CC2CCCCC2)CN2CCC[C@H]2CN2CCNC2=N)C(=N)N1CC1CCC(C(C)(C)C)CC1 (some centres unmarked) [Compound 2718.026]	fold decreased mMC3R agonist potency ([3]; relative to 2718.002): 11 fold and 10 fold; mMC4R partial agonist efficacy bin [6]: A (A (20–50% receptor activation))
	1 ± 0.3	2.4 ± 0.2	full agonist efficacy	2.4 ± 0.3	1.26		60		CCC[C@@H]1CN([C@H](CC2CCCCC2)CN2CCC[C@H]2CN2C(=N)NC[C@@H]2C(C)C)C(=N)N1CC1CCC(C(C)(C)C)CC1 (some centres unmarked) [Compound 2718.053]	
6.1	0.51 ± 0.09	1 ± 0.3	full agonist efficacy	0.6 ± 0.1	0.794		60		CC(C)C[C@@H]1CNC(=N)N1C[C@@H]1CCCN1C[C@@H](CC1CCCCC1)N1CCN(CC2CCC(C(C)(C)C)CC2)C1=N (some centres unmarked) [Compound 2718.025]	fold decreased mMC3R agonist potency ([3]; relative to 2718.002): 4 fold
	0.34 ± 0.03	2.1 ± 0.2	full agonist efficacy	0.51 ± 0.07	0.631		45		CC(C)[C@@H]1CNC(=N)N1C[C@@H]1CCCN1C[C@@H](CC1CCCCC1)N1CCN(CC2CCC(C(C)(C)C)CC2)C1=N (some centres unmarked) [Compound 2718.027]	
6.1	0.4 ± 0.04	0.38 ± 0.07	full agonist efficacy	0.32 ± 0.01	0.794				CC(C)C[C@@H]1CNC(=N)N1C[C@@H]1CCCN1C[C@@H](Cc1ccccc1)N1CCN(CC2CCC(C(C)(C)C)CC2)C1=N (some centres unmarked) [Compound 2718.022]	
	40			8 ± 1			60	60	CC(C)C[C@@H]1CNC(=N)N1C[C@H]1CCCN1C[C@H](Cc1ccccc1)N1C[C@H]([C@@H](C)O)N(CC2CCC(C(C)(C)C)CC2)C1=N (some centres unmarked) [Compound 2718.041]	fold decreased mMC1R agonist potency ([2]; relative to 2718.001): 125 fold; mMC5R partial agonist efficacy bin [4]: B (B (51–90% receptor activation))
6.3	0.39 ± 0.05	3 ± 0.7	full agonist efficacy	0.48 ± 0.05	0.501		50		C[C@H](O)[C@@H]1CN([C@H](Cc2ccccc2)CN2CCC[C@H]2CN2CCNC2=N)C(=N)N1CC1CCC(C(C)(C)C)CC1 (some centres unmarked) [Compound 2718.024]	fold decreased mMC3R agonist potency ([3]; relative to 2718.001): 11 fold and 10 fold
	2.9 ± 0.2			21.3			65	65	CC(C)C[C@H]1CNC(=N)N1C[C@@H]1CCCN1C[C@H](Cc1ccccc1)N1C[C@H]([C@@H](C)O)N(CC2CCC(C(C)(C)C)CC2)C1=N (some centres unmarked) [Compound 2718.042]	fold decreased mMC1R agonist potency ([2]; relative to 2718.001): 9 fold; mMC5R partial agonist efficacy bin [4]: B (B (51–90% receptor activation))
6.0	0.32 ± 0.03	0.27 ± 0.02		0.26 ± 0.03	1				CC(C)CC1CNC(=N)N1CC1CCCN1CC(Cc1ccccc1)N1CC(C(C)O)N(CC2CCC(C(C)(C)C)CC2)C1=N (centres unmarked) [Compound 2718.001]	EC50 [7]: 0.31 µM; mMC1R partial stimulation, % efficacy (previously reported) [8]: 58%; EC50 [9]: 0.53 µM; mMC4R antagonist pA2 (previously reported) [10]: 7.0; mMC4R partial stimulation, % activation (previously reported) [11]: 10–50%
		> 1000					20		CC(C)C[C@@H]1CNC(=N)N1C[C@@H]1CCCN1C[C@@H](Cc1ccccc1)N1CCNC1=N [Compound 2718.006]	mMC1R percent maximal stimulatory response (compared to NDP-MSH) [2, 12]: 40% @ 1 mM; mMC5R percent maximal stimulatory response (compared to NDP-MSH) [4]: 30% @ 1 mM
	7 ± 2	5.6 ± 0.8		2.9 ± 0.9			50		CC(C)C[C@H]1CNC(=N)N1C[C@H]1CCCN1C[C@H](Cc1ccccc1)N1C[C@@H]([C@H](C)O)N(CC2CCC(C(C)(C)C)CC2)C1=N (some centres unmarked) [Compound 2718.044]	mMC1R partial agonist efficacy bin [2]: B (B (51–90% receptor activation)); mMC3R partial agonist efficacy bin [3]: A (A (20–50% receptor activation)); mMC5R partial agonist efficacy bin [4]: B (B (51–90% receptor activation))
	6 ± 2			11		50		65	CCC[C@@H]1CN([C@@H](CC2CCCCC2)CN2CCC[C@H]2CN2C(=N)NC[C@H]2C(C)C)C(=N)N1CC1CCC(C(C)(C)C)CC1 (some centres unmarked) [Compound 2718.051]	fold decreased mMC1R agonist potency ([2]; relative to 2718.003): 9 fold; fold decreased mMC5R agonist potency [4]: 9 fold; mMC4R partial agonist efficacy bin [6]: B (B (51–90% receptor activation))
	10			19			35	35	CCC[C@@H]1CN(CCN2CCC[C@H]2CN2C(=N)NC[C@H]2C(C)C)C(=N)N1CC1CCC(C(C)(C)C)CC1 (some centres unmarked) [Compound 2718.028]	mMC1R partial agonist efficacy bin [2]: B (B (51–90% receptor activation)); mMC5R partial agonist efficacy bin [4]: B (B (51–90% receptor activation))
									CCCCC1CNC(=N)N1CC1CCC(C(C)(C)C)CC1 (centres unmarked) [Compound 2718.021]	mMC1R percent maximal stimulatory response (compared to NDP-MSH) ([2]; at 100 µM): 80% @ 100 µM; mMC3R percent maximal stimulatory response (compared to NDP-MSH) ([3]; at 100 µM): 50% @ 100 µM; EC50 ([4]; read-out: mMC5R EC50, agonist, mean ± SEM, at least three independent experiments, >1,000,000 = no agonist activity up to 1 mM): 17 µM; fold decreased mMC5R agonist potency [4]: 14 fold; mMC5R agonist efficacy (in words) [4]: fully activate; mMC4R percent maximal stimulatory response (compared to NDP-MSH) ([6]; at 100 µM): 50% @ 100 µM
						> 1000		20	CC(C)CC1CNC(=N)N1CC1CCCN1CC(C)N1CC(C(C)O)N(CC2CCC(C(C)(C)C)CC2)C1=N (centres unmarked) [Compound 2718.061]	mMC1R percent maximal stimulatory response (compared to NDP-MSH) [2, 12]: 65% @ 1 mM; mMC5R percent maximal stimulatory response (compared to NDP-MSH) [4]: 65% @ 1 mM
				140			55	70	CC(O)C1CNC(=N)N1CC1CCC(C(C)(C)C)CC1 (centres unmarked) [Compound 2718.020]	mMC1R percent maximal stimulatory response (compared to NDP-MSH) [2, 12]: 70% @ 1 mM; mMC5R agonist efficacy (in words) [4]: fully activate
	9 ± 3					> 1000		20	CCC[C@@H]1CN([C@H](CC2CCCCC2)CN2CCC[C@H]2CN2C(=N)NC[C@H]2C(C)C)C(=N)N1CC [Compound 2718.014]	mMC1R partial agonist efficacy bin [2]: B (B (51–90% receptor activation)); mMC5R percent maximal stimulatory response (compared to NDP-MSH) [4]: 50% @ 1 mM
	2.5 ± 0.3	2.6 ± 0.1		2.92 ± 0.07		12			CCC[C@@H]1CN([C@H](CC2CCCCC2)CN2CCC[C@@H]2CN2C(=N)NC[C@H]2C(C)C)C(=N)N1CC1CCC(C(C)(C)C)CC1 (some centres unmarked) [Compound 2718.052]	fold decreased mMC1R agonist potency ([2]; relative to 2718.003): 4 fold; mMC3R partial agonist efficacy bin [3]: B (B (51–90% receptor activation)); mMC4R partial agonist efficacy bin [6]: B (B (51–90% receptor activation))
	3.2 ± 0.5	27		4.2 ± 0.5		39			CCC[C@H]1CN([C@H](CC2CCCCC2)CN2CCC[C@H]2CN2C(=N)NC[C@H]2C(C)C)C(=N)N1CC1CCC(C(C)(C)C)CC1 (some centres unmarked) [Compound 2718.050]	fold decreased mMC1R agonist potency ([2]; relative to 2718.003): 5 fold; mMC3R partial agonist efficacy bin [3]: B (B (51–90% receptor activation)); mMC4R partial agonist efficacy bin [6]: B (B (51–90% receptor activation))
